For this experiment, the system named is HIV-1 IIIB. As to the kind of experiment: Anti-HIV-1 activity in MT-2 cells, virus-induced cytopathic effect (CellTiter-Glo). The class given is cell-based. As for the experimental part: MT-2 cells were maintained in RPMI-1640 medium supplemented with antibiotics and 10% fetal bovine serum (FBS). MT-2 cells were infected with HIV-1 IIIB at a multiplicity of infection (moi) of 0.01 and added to 96-well plates with serial dilutions of tested compounds at a density of 20,000 cells/well. […] Activity against NRTI-resistant mutants was determined in parallel with wild-type control virus and fold change in EC50 was calculated.
Background: Damage to the host cells serves as the signal in cytopathic effect assays.

By EC50 is commonly meant the concentration needed to bring the measured effect to its halfway point. Low readings indicate greater potency, high ones weaker potency. `CCOC(=O)[C@H](C)N[P@](=O)(CO[C@@H]1C=C(F)[C@H](n2cnc3c(N)ncnc32)O1)Oc1ccccc1` (single isomer, unassigned) [Prodrug]: the concentration giving a half-maximal response (EC50) (Human immunodeficiency virus 1, MT2, 120 h, MT-2 cells, HIV-1 IIIB, 5-day incubation, mean ± SD) worked out at 150 ± 40 nM. Further, for the setting “MT-2”, the “more potent than the parent compound” value stood at 71 fold.

The record behind these values is patent publication US20100093667A1, “SALTS OF HIV INHIBITOR COMPOUNDS” (Gilead Sciences, Inc., priority 2008, published 2010).
